Here are results for 70 compounds from publication PMC11855827, “High-Throughput Screening of Five Compound Libraries for Anthelmintic Activity and Toxicity Leads to the Discovery of Two Flavonoid Compounds” (International Journal of Molecular Sciences, 2025).

Test [1] concerns C. elegans. Put plainly: microbe, parasite or virus in culture. The settings on record: Caenorhabditis elegans.
The test system of test [2] is C. elegans.
Where [3] appears, read: 0 h, read-out: Percentage of motility inhibition 0 h, Table S2, C. elegans SS assay, 110 μM, 0 h, averages of 4 data points.
The mark [4] stands for this setting: 24 h, read-out: Percentage of motility inhibition 24 h, Table S2, C. elegans SS assay, 110 μM, 24 h, averages of 4 data points.
Where [5] appears, read: Table S2, C. elegans SS assay, 110 μM, 0 h, averages of 4 data points.
[6] abbreviates: Table S2, C. elegans SS assay, 110 μM, 24 h, averages of 4 data points.

Values joined by “and” are separate entries in the source; they are usually repeats but may differ in a detail not shown here. Equal values may be shown once. Read-outs that look alike come from different tables or passages of the source. Where no end group is shown, it is not given here.

A word on the inhibition: it is the change of the read-out against control, counted positive when it falls. For `CC=CC(=O)N(CC)c1ccccc1C` (mixture of isomers) [Crotamiton], the inhibition at 110 µM with C. elegans [1] (setting [3]) was 23%; in the test with C. elegans [1] (setting [4]), 24%.
In the case of `OC[C@H]1O[C@@H](O[C@H]2[C@H](O)[C@@H](O)C(O)O[C@@H]2CO)[C@H](O)[C@@H](O)[C@H]1O` (mixture of isomers) [Lactose], the inhibition at 110 µM in the test on C. elegans [1] (0 h, read-out: Percentage of motility inhibition 0 h) was found to be 54%; in the test on C. elegans [1] (24 h, read-out: Percentage of motility inhibition 24 h), 10%.
Regarding `C=CC(C)(O)CCC=C(C)CCC=C(C)C` (mixture of isomers) [Nerolidol], the inhibition at 110 µM in the test with C. elegans [1] (setting [3]) and in the test with C. elegans [1] (setting [4]) was 7% throughout.
As to `COc1ccc([C@@H](O)CNC(=O)/C=C/c2ccccc2)cc1` (racemic) [Aegeline], the inhibition at 110 µM with C. elegans [1] (setting [3]) came out at 4%; with C. elegans [1] (setting [4]) it was 6%.
The matching figures for `CSCCC(N)C(=O)O` (racemic) [DL-Methionine]: 6% and 2%.
In the same order, the values of `O=c1ncnc2n([C@H]3O[C@@H](CO)[C@H](O)[C@@H]3O)[nH]cc1-2` (stereo in doubt) [Allopurinol riboside] are 0% and 0%.
In the same order, the values of `COc1cc(OC)cc(OC)c1` [1,3,5‐Trimethoxybenzene] are 1% and 25%.
Take `CC(C)C12CCC(C)(CC1)O2` [1,4-Cineole]: the inhibition at 110 µM in the test with C. elegans [1] (setting [3]) turned out to be 21%; in the test on C. elegans [1] (setting [4]), 35%.
The matching figures for `CCCCCCCCCCCCCCCCO` [1-Hexadecanol]: 17% and 0%.
The matching figures for `OC[C@H]1NC[C@H](O)[C@@H](O)[C@@H]1O` [1‐Deoxynojirimycin]: 0% and 1%.
Take `CCCCCCCCCCCCCCCCCCCCCCO` [1‐Docosanol]: the inhibition at 110 µM with C. elegans [1] (setting [3]) was found to be 33%; in the test with C. elegans [1] (setting [4]), 25%.
The matching figures for `Cc1cncc(C)n1` [2,6‐Dimethylpyrazine]: 0% and 0%.
Regarding Enfuvirtide, the “Percentage of motility inhibition 0 h” value in the test with C. elegans [2] (0 h, 110 μM) is on record as 36%. The “Percentage of motility inhibition 24 h” value with C. elegans [2] (24 h, 110 µM) is given as 30%.
With Engeletin, in the test on C. elegans [2] (setting [5]), the “Percentage of motility inhibition 0 h” value is reported as 11%. The “Percentage of motility inhibition 24 h” value in the test on C. elegans [2] (setting [6]) came out at 9%.
In the same order, the values of Epimedin A are 13% and 13%.
As to Eprinomectin [reference compound], in the test with C. elegans [2], the “Inhibition (%) 110 μM (0 h)” value amounted to 91 ± 3% and the “Inhibition (%) 110 μM (24 h)” value is 92 ± 3%. Further, in the test with C. elegans [2] (setting [5]), the “Percentage of motility inhibition 0 h” value is recorded as 96%. The “Percentage of motility inhibition 24 h” value with C. elegans [2] (setting [6]) was 86%.
For the compound Escin, the “Percentage of motility inhibition 24 h” value with C. elegans [2] (setting [6]) was 8% and 6%.
Turning to Evocarpine, the “Percentage of motility inhibition 0 h” value with C. elegans [2] (setting [5]) is given as 8%. For the same compound, in the test with C. elegans [2] (setting [6]), the “Percentage of motility inhibition 24 h” value is 20%.
In the same order, the values of Evodiamine are 0% and 23%.
The matching figures for Ginkgolide B: 4% and 7%.
For the compound Ginkgolide C, the “Percentage of motility inhibition 0 h” value in the test on C. elegans [2] (setting [5]) is 12%. In the test on C. elegans [2] (setting [6]), the “Percentage of motility inhibition 24 h” value is listed as 0%.
For Ginkgolide J, the “Percentage of motility inhibition 0 h” value with C. elegans [2] (setting [5]) came to 0%. For the same compound, the “Percentage of motility inhibition 24 h” value in the test on C. elegans [2] (setting [6]) is on record as 25%.
The matching figures for Gypsogenin-3-O-glucuronide: 50% and 10%.
As to Handelin, the “Percentage of motility inhibition 0 h” value with C. elegans [2] (setting [5]) is recorded as 0%. Further, the “Percentage of motility inhibition 24 h” value with C. elegans [2] (setting [6]) is given as 14%.
Turning to Harpagide, the “Percentage of motility inhibition 0 h” value in the test with C. elegans [2] (setting [5]) was determined as 9%. Moreover, in the test with C. elegans [2] (setting [6]), the “Percentage of motility inhibition 24 h” value was 13%.
The matching figures for Hosenkoside C: 0% and 5%.
For the compound Hyaluronic acid, the “Percentage of motility inhibition 0 h” value with C. elegans [2] (setting [5]) is reported as 0%. Further, the “Percentage of motility inhibition 24 h” value in the test on C. elegans [2] (setting [6]) is on record as 4%.
In the case of Hydrastinine (hydrochloride), in the test with C. elegans [2] (setting [5]), the “Percentage of motility inhibition 0 h” value was found to be 7%. Moreover, in the test with C. elegans [2] (setting [6]), the “Percentage of motility inhibition 24 h” value came to 0%.
As for Hydroxysafflor yellow A, in the test with C. elegans [2] (110 µM), the “Percentage of motility inhibition 0 h” value came out at 36% and the “Percentage of motility inhibition 24 h” value was 12%.
Consider Ingenol-5,20-acetonide, for which, in the test on C. elegans [2] (setting [5]), the “Percentage of motility inhibition 0 h” value is 4%. Moreover, the “Percentage of motility inhibition 24 h” value in the test with C. elegans [2] (setting [6]) was found to be 6%.
In the same order, the values of Inulin are 4% and 17%.
As to Isoliquiritin apioside, the “Percentage of motility inhibition 0 h” value in the test on C. elegans [2] (setting [5]) was 47%. The “Percentage of motility inhibition 24 h” value in the test on C. elegans [2] (setting [6]) was 8%.
In the same order, the values of Kansuiphorin C are 5% and 29%.
With Kukoamine B, the “Percentage of motility inhibition 0 h” value with C. elegans [2] (setting [5]) is 8%. Besides, the “Percentage of motility inhibition 24 h” value with C. elegans [2] (setting [6]) amounted to 0%.
As for Larixyl acetate, the “Percentage of motility inhibition 0 h” value in the test with C. elegans [2] (setting [5]) is given as 0%. Besides, the “Percentage of motility inhibition 24 h” value in the test with C. elegans [2] (setting [6]) is given as 44%.
In the case of Liensinine (Diperchlorate), the “Percentage of motility inhibition 0 h” value in the test on C. elegans [2] (setting [5]) is recorded as 0%. In the test with C. elegans [2] (setting [6]), the “Percentage of motility inhibition 24 h” value amounted to 0%.
Take Liensinine (perchlorate): the “Percentage of motility inhibition 0 h” value in the test on C. elegans [2] (setting [5]) is 7%. Further, in the test with C. elegans [2] (setting [6]), the “Percentage of motility inhibition 24 h” value is listed as 0%.
Regarding Madecassoside, the “Percentage of motility inhibition 0 h” value in the test with C. elegans [2] (setting [5]) is 12%. In addition, the “Percentage of motility inhibition 24 h” value with C. elegans [2] (setting [6]) is recorded as 1%.
With Milbemycin [reference compound], in the test on C. elegans [2], the “Inhibition (%) 110 μM (0 h)” value is given as 100 ± 0% and the “Inhibition (%) 110 μM (24 h)” value is 86 ± 14%.
On to Miquelianin, for which the “Percentage of motility inhibition 0 h” value in the test with C. elegans [2] (setting [5]) turned out to be 1%. For the same compound, in the test with C. elegans [2] (setting [6]), the “Percentage of motility inhibition 24 h” value is listed as 0%.
Turning to Mogroside II-A, the “Percentage of motility inhibition 0 h” value in the test with C. elegans [2] (setting [5]) came out at 0%. The “Percentage of motility inhibition 24 h” value in the test with C. elegans [2] (setting [6]) was 14%.
On to Mogroside IIA1, for which the “Percentage of motility inhibition 0 h” value in the test on C. elegans [2] (setting [5]) worked out at 6%. Further, the “Percentage of motility inhibition 24 h” value in the test with C. elegans [2] (setting [6]) was 47%.
In the same order, the values of Neoline are 21% and 1%.
Turning to Nordihydrocapsaicin, in the test with C. elegans [2] (110 µM), the “Percentage of motility inhibition 0 h” value is recorded as 0% and the “Percentage of motility inhibition 24 h” value came to 4%.
Notoginsenoside Fe: the “Percentage of motility inhibition 0 h” value in the test with C. elegans [2] (setting [5]) is reported as 0%. Besides, the “Percentage of motility inhibition 24 h” value in the test with C. elegans [2] (setting [6]) is 0%.
For Oxypaeoniflorin, the “Percentage of motility inhibition 0 h” value in the test with C. elegans [2] (setting [5]) is 0%. Further, the “Percentage of motility inhibition 24 h” value in the test with C. elegans [2] (setting [6]) is given as 0%.
In the case of Penitrem A, in the test with C. elegans [2] (setting [5]), the “Percentage of motility inhibition 0 h” value came to 0%. Also, the “Percentage of motility inhibition 24 h” value with C. elegans [2] (setting [6]) was 14%.
In the same order, the values of Phillyrin are 0% and 0%.
In the same order, the values of Phytol are 13% and 5%.
As to Protopine, in the test on C. elegans [2] (setting [5]), the “Percentage of motility inhibition 0 h” value was 0%. Further, in the test on C. elegans [2] (setting [6]), the “Percentage of motility inhibition 24 h” value was determined as 0%.
In the case of Pseudoginsenoside F11, the “Percentage of motility inhibition 0 h” value in the test on C. elegans [2] (setting [5]) was 0%. Moreover, the “Percentage of motility inhibition 24 h” value in the test with C. elegans [2] (setting [6]) is 22%.
RKDVY [Thymopentin (acetate)]: the “Percentage of motility inhibition 0 h” value in the test on C. elegans [2] (0 h, 110 μM) came to 4%. The “Percentage of motility inhibition 24 h” value in the test with C. elegans [2] (24 h, 110 µM) is given as 4%.
Consider RKDVY [Thymopentin], for which the “Percentage of motility inhibition 0 h” value in the test with C. elegans [2] (0 h, 110 μM) was 36%. For the same compound, in the test with C. elegans [2] (24 h, 110 µM), the “Percentage of motility inhibition 24 h” value came to 3%.
For the compound Rebaudioside B, the “Percentage of motility inhibition 0 h” value in the test on C. elegans [2] (setting [5]) is reported as 6%. In addition, the “Percentage of motility inhibition 24 h” value in the test with C. elegans [2] (setting [6]) is reported as 1%.
The matching figures for Rebaudioside C: 0% and 6%.
The matching figures for Retrorsine: 28% and 9%.
As for SN‐38, the “Percentage of motility inhibition 0 h” value with C. elegans [2] (setting [5]) was 34%. Further, the “Percentage of motility inhibition 24 h” value in the test on C. elegans [2] (setting [6]) worked out at 3%.
With Schaftoside, the “Percentage of motility inhibition 0 h” value in the test with C. elegans [2] (setting [5]) is 0%. Besides, in the test with C. elegans [2] (setting [6]), the “Percentage of motility inhibition 24 h” value amounted to 3%.
Take Strictosamide: the “Percentage of motility inhibition 0 h” value in the test with C. elegans [2] (setting [5]) came out at 0%. Further, in the test with C. elegans [2] (setting [6]), the “Percentage of motility inhibition 24 h” value stood at 9%.
Take Tannic acid: the “Percentage of motility inhibition 0 h” value with C. elegans [2] (setting [5]) was 3%. The “Percentage of motility inhibition 24 h” value in the test with C. elegans [2] (setting [6]) came out at 15%.
In the same order, the values of Tarasaponin VI are 0% and 0%.
The matching figures for Teicoplanin: 3% and 9%.
In the same order, the values of Theaflavin 3,3'‐digallate are 0% and 2%.
For Theaflavin‐3'‐gallate, in the test on C. elegans [2] (setting [5]), the “Percentage of motility inhibition 0 h” value came to 9%. Further, the “Percentage of motility inhibition 24 h” value in the test with C. elegans [2] (setting [6]) came out at 0%.
In the case of Trigonelline (chloride), in the test on C. elegans [2] (110 µM), the “Percentage of motility inhibition 0 h” value is given as 2% and the “Percentage of motility inhibition 24 h” value came to 17%.
Turning to Tubeimoside I, the “Percentage of motility inhibition 0 h” value with C. elegans [2] (setting [5]) is listed as 3%. Further, the “Percentage of motility inhibition 24 h” value in the test with C. elegans [2] (setting [6]) stood at 0%.
The matching figures for Valepotriate: 0% and 7%.
In the same order, the values of Vitamin B12 are 34% and 0%.
In the case of Vitamin K, in the test with C. elegans [2] (setting [5]), the “Percentage of motility inhibition 0 h” value came to 0%. Further, the “Percentage of motility inhibition 24 h” value in the test with C. elegans [2] (setting [6]) is on record as 15%.
As to Xanthopterin (hydrate), the “Percentage of motility inhibition 0 h” value with C. elegans [2] (setting [5]) is given as 5%. For the same compound, the “Percentage of motility inhibition 24 h” value with C. elegans [2] (setting [6]) was determined as 0%.
